Experimental data reported in US11903955B2, “Methods of treating heart failure with reduced ejection fraction” (ASTRAZENECA AB, priority 2019, dated 2024).
Several values for one entry are separate records, joined by “and”; a condition that tells them apart may be missing. Identical values can stand only once. Like-named read-outs stand apart in the source and are kept apart here. Marks after values point to notes of the source that are not given here.

System: patients with chronic heart failure with reduced ejection fraction (LVEF ≤40%)
Settings: for Change in KCCQ total symptom score at 8 mo., Win ratio (95% CI): >1 indicates superiority; for KCCQ-TSS increase, points more with dapagliflozin compared to placebo: baseline to 8 months
[1] = dapagliflozin vs placebo, at 8 months
[2] = individuals with diabetes, dapagliflozin vs placebo
[3] = individuals without diabetes, dapagliflozin vs placebo

## CCOc1ccc(Cc2cc([C@@H]3O[C@H](CO)[C@@H](O)[C@H](O)[C@H]3O)ccc2Cl)cc1 [Dapagliflozin, dapagliflozin]
No T2DM (N = 1298)
  Change in KCCQ total symptom score at 8 mo.: 5.4 ± 17.7
T2DM (N = 1075)
  Change in KCCQ total symptom score at 8 mo.: 7.0 ± 19.7
All patients, at 8 months
  KCCQ total symptom score, mean difference dapagliflozin vs placebo: 2.8 points
  patients with deterioration (≥5 point decline) in KCCQ-TSS: 25% and 25.3%
  patients with five or greater point (at least small) improvement in KCCQ-TSS: 58% and 58.3%
All patients, baseline to month 8, mean ± SD
  Change in KCCQ total symptom score at 8 mo.: 6.1 ± 18.6 points
All patients, baseline to month 8, mean ± SD, listed as dapagliflozin
  Change in KCCQ total symptom score at 8 mo.: 6.1±18.6 points
At 4 months
  mean KCCQ-CSS, points higher than placebo: 1.8 points
  mean KCCQ-OSS, points higher than placebo: 1.7 points
  mean KCCQ-TSS, points higher than placebo: 1.9 points
At 8 months
  mean KCCQ-CSS, points higher than placebo: 2.5 points
  mean KCCQ-OSS, points higher than placebo: 2.3 points
  number needed to treat (NNT) for at least small (≥5 point) improvement in KCCQ-TSS: 14 (10-23)
  number needed to treat (NNT) for large (≥15 point) improvement in KCCQ-TSS: 18 (12-35)
  number needed to treat (NNT) for moderate (≥10 point) improvement in KCCQ-TSS: 15 (11-25)
  patients with large (≥15 point) improvement in KCCQ-TSS: 54.0%
  patients with moderate (≥10 point) improvement in KCCQ-TSS: 54.5%
Dapagliflozin vs placebo, No T2DM
  Change in KCCQ total symptom score at 8 mo., win-ratio (95% CI): 1.15 (1.05, 1.26)
Dapagliflozin vs placebo, T2DM
  Change in KCCQ total symptom score at 8 mo., win-ratio (95% CI): 1.22 (1.11, 1.35)
Dapagliflozin vs placebo, all patients
  Change in KCCQ total symptom score at 8 mo., Win ratio (95% CI): 1.18 (1.11-1.26)†
Dapagliflozin vs placebo, all patients, listed as dapagliflozin
  Change in KCCQ total symptom score at 8 mo., Win ratio (95% CI): 1.18
[1]
  odds ratio (95% CI) for large (≥15 point) improvement in KCCQ-TSS: 1.14 (1.07-1.22)
  odds ratio (95% CI) for moderate (≥10 point) improvement in KCCQ-TSS: 1.15 (1.08-1.22)
  odds ratio for deterioration (≥5 point decline) in KCCQ-TSS: 0.84
  odds ratio for ≥5 point improvement in KCCQ-TSS: 1.15
Individuals with diabetes
  patients with deterioration in KCCQ-TSS: 24.5%
  patients with ≥5-point improvement in KCCQ-TSS: 58.9%
[2]
  odds ratio for deterioration in KCCQ-TSS: 0.78 (0.71, 0.87)
  odds ratio for ≥5-point improvement in KCCQ-TSS: 1.20 (1.09, 1.31)
Individuals without diabetes
  patients with an increase of at least 5 points in KCCQ-TSS: 57.7%
  patients with significant deterioration in KCCQ-TSS: 26.0%
[3]
  odds ratio for increase of at least 5 points in KCCQ-TSS: 1.12 (95% CI 1.03, 1.22)
  odds ratio for significant deterioration in KCCQ-TSS: 0.88 (0.81, 0.97)
Patients with diabetes
  KCCQ-TSS increase, points more with dapagliflozin compared to placebo: 3.5 (95% CI 1.6-5.4) points
Patients without diabetes
  KCCQ-TSS increase, points more with dapagliflozin compared to placebo: 2.2 (95% CI 0.7-3.7) points
